Source: ChEMBL document CHEMBL1144577, “1,5-Biaryl pyrrole derivatives as EP1 receptor antagonists. Structure-activity relationships of 6-substituted and 5,6-disubstituted benzoic acid derivatives” (Bioorg Med Chem Lett, 2007)
Blank lines part the entries; values can stand above or below the compound they belong to.

How the values were obtained:
[1] = Drug level in blood of rat FCA model of inflammatory pain at 30 mg/kg, po after 8 hrs; type: ADME, organism-based; set-up: dose 30 mg/kg, route oral; conditions: read-out: Drug uptake
[2] = Drug level in brain of rat FCA model of inflammatory pain at 30 mg/kg, po after 8 hrs; type: ADME, organism-based; set-up: dose 30 mg/kg, route oral; conditions: read-out: Drug uptake
[3] = Drug level in blood of rat FCA model of inflammatory pain at 30 mg/kg, po after 1 hr; type: ADME, organism-based; set-up: dose 30 mg/kg, route oral; conditions: read-out: Drug uptake
[4] = target: Prostaglandin F2-alpha receptor (Homo sapiens, UniProt P43088); assay: Inhibition of human recombinant FP receptor expressed in CHO cells by calcium mobilisation assay; type: functional, cell-based
Prostaglandin F2-alpha receptor, sequence (P43088 whole entry): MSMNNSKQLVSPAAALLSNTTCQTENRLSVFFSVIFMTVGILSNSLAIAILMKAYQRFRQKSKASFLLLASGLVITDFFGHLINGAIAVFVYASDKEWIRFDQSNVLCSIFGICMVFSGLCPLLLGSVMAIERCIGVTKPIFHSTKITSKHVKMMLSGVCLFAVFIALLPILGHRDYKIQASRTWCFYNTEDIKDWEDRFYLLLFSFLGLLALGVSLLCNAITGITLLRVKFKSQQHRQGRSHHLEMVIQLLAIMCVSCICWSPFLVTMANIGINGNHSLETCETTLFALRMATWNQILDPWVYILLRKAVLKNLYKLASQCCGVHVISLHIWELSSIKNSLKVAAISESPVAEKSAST

[5] = target: T1, Prostaglandin E2 receptor EP3 subtype (Homo sapiens, UniProt P43115); assay: Inhibition of human recombinant EP3 receptor expressed in CHO cells by calcium mobilisation assay; type: functional, cell-based
T1 sequence (P43115 whole entry): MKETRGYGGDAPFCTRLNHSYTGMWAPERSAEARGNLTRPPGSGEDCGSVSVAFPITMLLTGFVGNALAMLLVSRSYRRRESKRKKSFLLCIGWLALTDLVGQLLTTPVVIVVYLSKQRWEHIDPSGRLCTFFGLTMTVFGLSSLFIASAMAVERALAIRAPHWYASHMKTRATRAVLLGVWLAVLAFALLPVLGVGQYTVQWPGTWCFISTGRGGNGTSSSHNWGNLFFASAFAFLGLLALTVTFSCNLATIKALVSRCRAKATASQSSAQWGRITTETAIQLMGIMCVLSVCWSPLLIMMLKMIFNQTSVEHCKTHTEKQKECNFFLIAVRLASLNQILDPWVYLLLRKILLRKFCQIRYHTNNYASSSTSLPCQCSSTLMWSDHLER

[6] = Drug level in brain of rat FCA model of inflammatory pain at 30 mg/kg, po after 4 hrs; type: ADME, organism-based; set-up: dose 30 mg/kg, route oral; conditions: read-out: Drug uptake
[7] = target: Prostacyclin receptor (Homo sapiens, UniProt P43119); assay: Inhibition of human recombinant IP receptor expressed in CHO cells […] by calcium mobilisation assay; type: functional, cell-based
Prostacyclin receptor, sequence (P43119 whole entry): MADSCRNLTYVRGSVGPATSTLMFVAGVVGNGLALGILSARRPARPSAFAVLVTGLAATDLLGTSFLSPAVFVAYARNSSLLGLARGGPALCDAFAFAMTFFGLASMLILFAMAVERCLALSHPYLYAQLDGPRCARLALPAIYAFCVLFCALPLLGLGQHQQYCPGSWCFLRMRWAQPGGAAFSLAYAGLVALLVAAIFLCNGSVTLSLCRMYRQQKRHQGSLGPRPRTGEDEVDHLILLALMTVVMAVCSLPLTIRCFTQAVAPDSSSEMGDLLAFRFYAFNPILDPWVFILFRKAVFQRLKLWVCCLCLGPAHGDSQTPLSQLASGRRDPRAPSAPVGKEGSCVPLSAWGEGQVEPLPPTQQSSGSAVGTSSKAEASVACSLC

[8] = target: Prostaglandin E2 receptor EP2 subtype (Homo sapiens, UniProt P43116); assay: Inhibition of human recombinant EP2 receptor expressed in CHO cells […] by calcium mobilisation assay; type: functional, cell-based
Prostaglandin E2 receptor EP2 subtype, sequence (P43116 whole entry): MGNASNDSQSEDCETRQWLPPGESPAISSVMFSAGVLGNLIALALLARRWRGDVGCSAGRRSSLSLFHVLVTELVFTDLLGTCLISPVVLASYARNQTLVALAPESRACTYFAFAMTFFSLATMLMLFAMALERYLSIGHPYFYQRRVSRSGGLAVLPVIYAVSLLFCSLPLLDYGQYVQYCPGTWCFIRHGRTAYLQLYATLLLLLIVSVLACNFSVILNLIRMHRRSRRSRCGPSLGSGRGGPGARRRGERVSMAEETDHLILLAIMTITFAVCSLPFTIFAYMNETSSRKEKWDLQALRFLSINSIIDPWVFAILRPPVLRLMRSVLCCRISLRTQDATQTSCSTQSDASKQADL

[9] = Drug level in brain of rat FCA model of inflammatory pain at 30 mg/kg, po after 2 hrs; type: ADME, organism-based; set-up: dose 30 mg/kg, route oral; conditions: read-out: Drug uptake
[10] = Ratio of drug level in brain to blood in rat FCA model of inflammatory pain at 30 mg/kg, po after 2 hrs; type: ADME, organism-based; set-up: dose 30 mg/kg, route oral; conditions: brain and blood
[11] = Drug level in brain of rat FCA model of inflammatory pain at 30 mg/kg, po after 1 hr; type: ADME, organism-based; set-up: dose 30 mg/kg, route oral; conditions: read-out: Drug uptake
[12] = Intrinsic clearance in monkey liver microsomes; type: ADME, Macaca mulatta, Microsome; conditions: rhesus monkey
[13] = Drug level in brain of rat FCA model of inflammatory pain at 30 mg/kg, po after 6 hrs; type: ADME, organism-based; set-up: dose 30 mg/kg, route oral; conditions: read-out: Drug uptake
[14] = Volume of distribution in rat at 1 mg/kg, iv or 3 mg/kg, po; type: ADME, organism-based; conditions: in vivo, read-out: Vss
[15] = Ratio of drug level in brain to blood in rat FCA model of inflammatory pain at 30 mg/kg, po after 6 hrs; type: ADME, organism-based; set-up: dose 30 mg/kg, route oral; conditions: brain and blood
[16] = Drug level in brain of rat FCA model of inflammatory pain at 30 mg/kg, po after 0.25 hrs; type: ADME, organism-based; set-up: dose 30 mg/kg, route oral; conditions: read-out: Drug uptake
[17] = Blood clearance in rat at 1 mg/kg, iv or 3 mg/kg, po; type: ADME, organism-based
[18] = test system: Liver microsomes; assay: Intrinsic clearance in human liver microsomes; type: ADME, Microsome
[19] = Intrinsic clearance in dog liver microsomes; type: ADME, Canis lupus familiaris, Microsome
[20] = Drug level in blood of rat FCA model of inflammatory pain at 30 mg/kg, po after 2 hrs; type: ADME, organism-based; set-up: dose 30 mg/kg, route oral; conditions: read-out: Drug uptake
[21] = test system: Rattus norvegicus; assay: Reversal of hypersensitivity in FCA rat model of inflammatory pain at 5 mg/kg, po; type: functional
[22] = Ratio of drug level in brain to blood in rat FCA model of inflammatory pain at 30 mg/kg, po after 4 hrs; type: ADME, organism-based; set-up: dose 30 mg/kg, route oral; conditions: brain and blood
[23] = Drug level in blood of rat FCA model of inflammatory pain at 30 mg/kg, po after 6 hrs; type: ADME, organism-based; set-up: dose 30 mg/kg, route oral; conditions: read-out: Drug uptake
[24] = Bioavailability in rat at 3 mg/kg, po; type: ADME, organism-based; conditions: in vivo
[25] = test system: Rattus norvegicus; assay: Reversal of hypersensitivity in po dosed FCA rat model of inflammatory pain; type: functional
[26] = Ratio of drug level in brain to blood in rat FCA model of inflammatory pain at 30 mg/kg, po after 1 hr; type: ADME, organism-based; set-up: dose 30 mg/kg, route oral; conditions: brain and blood
[27] = test system: Rattus norvegicus; assay: Normalized AUC (0 to t) in rat at 3 mg/kg, po; type: ADME, organism-based; set-up: dose 3 mg/kg, route oral; conditions: in vivo
[28] = target: T2, Prostaglandin E2 receptor EP1 subtype (Homo sapiens, UniProt P34995); assay: Inhibition of human recombinant EP1 receptor expressed in CHO cells by calcium mobilisation assay; type: functional, cell-based
T2 sequence (P34995 whole entry): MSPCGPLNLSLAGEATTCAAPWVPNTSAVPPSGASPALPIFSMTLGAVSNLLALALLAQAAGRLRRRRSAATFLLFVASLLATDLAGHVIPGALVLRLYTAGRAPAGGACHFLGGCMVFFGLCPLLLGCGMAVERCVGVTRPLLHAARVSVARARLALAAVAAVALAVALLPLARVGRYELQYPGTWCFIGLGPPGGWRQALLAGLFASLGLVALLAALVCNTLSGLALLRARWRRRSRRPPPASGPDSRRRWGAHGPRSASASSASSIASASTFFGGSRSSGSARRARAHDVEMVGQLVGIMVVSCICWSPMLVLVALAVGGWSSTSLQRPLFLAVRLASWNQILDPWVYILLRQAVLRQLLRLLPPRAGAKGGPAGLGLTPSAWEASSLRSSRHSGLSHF

[29] = target: T3, Prostaglandin E2 receptor EP4 subtype (Homo sapiens, UniProt P35408); assay: Binding affinity to human EP4 receptor expressed in CHO cells; type: cell-based
T3 sequence (P35408 whole entry): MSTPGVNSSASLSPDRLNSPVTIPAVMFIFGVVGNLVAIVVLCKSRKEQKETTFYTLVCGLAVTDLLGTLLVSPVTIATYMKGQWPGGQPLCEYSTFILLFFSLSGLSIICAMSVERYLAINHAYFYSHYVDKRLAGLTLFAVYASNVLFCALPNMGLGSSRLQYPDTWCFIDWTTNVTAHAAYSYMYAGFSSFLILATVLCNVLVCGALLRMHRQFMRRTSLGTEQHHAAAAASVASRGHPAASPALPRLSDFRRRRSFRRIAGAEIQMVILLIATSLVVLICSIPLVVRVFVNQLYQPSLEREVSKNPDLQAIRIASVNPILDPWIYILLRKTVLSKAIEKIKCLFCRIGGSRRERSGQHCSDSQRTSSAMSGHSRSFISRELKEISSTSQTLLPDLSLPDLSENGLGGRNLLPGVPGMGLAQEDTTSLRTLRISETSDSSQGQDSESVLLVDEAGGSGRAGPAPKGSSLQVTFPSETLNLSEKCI

[30] = target: T2, Prostaglandin E2 receptor EP1 subtype; assay: Displacement of [3H]PGE2 from human recombinant EP1 receptor expressed in CHOK1 cell membrane; type: cell membranes, CHO-K1
[31] = Ratio of drug level in brain to blood in rat FCA model of inflammatory pain at 30 mg/kg, po after 8 hrs; type: ADME, organism-based; set-up: dose 30 mg/kg, route oral; conditions: brain and blood
[32] = Cmax in rat at 3 mg/kg, po; type: ADME, organism-based; set-up: dose 3 mg/kg, route oral; conditions: in vivo
[33] = Ratio of drug level in brain to blood in rat FCA model of inflammatory pain at 30 mg/kg, po after 0.25 hrs; type: ADME, organism-based; set-up: dose 30 mg/kg, route oral; conditions: brain and blood
[34] = Drug level in brain of rat FCA model of inflammatory pain at 30 mg/kg, po after 24 hrs; type: ADME, organism-based; set-up: dose 30 mg/kg, route oral; conditions: read-out: Drug uptake
[35] = Drug level in blood of rat FCA model of inflammatory pain at 30 mg/kg, po after 0.25 hrs; type: ADME, organism-based; set-up: dose 30 mg/kg, route oral; conditions: read-out: Drug uptake
[36] = Drug level in blood of rat FCA model of inflammatory pain at 30 mg/kg, po after 4 hrs; type: ADME, organism-based; set-up: dose 30 mg/kg, route oral; conditions: read-out: Drug uptake
[37] = Ratio of drug level in brain to blood in rat FCA model of inflammatory pain at 30 mg/kg, po after 24 hrs; type: ADME, organism-based; set-up: dose 30 mg/kg, route oral; conditions: brain and blood
[38] = Tmax in rat at 3 mg/kg, po; type: ADME, organism-based; set-up: dose 3 mg/kg, route oral; conditions: in vivo
[39] = Half life in rat at 1 mg/kg, iv or 3 mg/kg, po; type: ADME, organism-based; conditions: in vivo
[40] = target: T3, Prostaglandin E2 receptor EP4 subtype; assay: Inhibition of human EP4 recombinant receptor expressed in CHO cells by cAMP mobilisation assay; type: functional, cell-based
[41] = target: T4, Thromboxane A2 receptor (Homo sapiens, UniProt P21731); assay: Inhibition of human recombinant TP receptor expressed in CHO cells by calcium mobilisation assay; type: functional, cell-based
T4 sequence (P21731 whole entry): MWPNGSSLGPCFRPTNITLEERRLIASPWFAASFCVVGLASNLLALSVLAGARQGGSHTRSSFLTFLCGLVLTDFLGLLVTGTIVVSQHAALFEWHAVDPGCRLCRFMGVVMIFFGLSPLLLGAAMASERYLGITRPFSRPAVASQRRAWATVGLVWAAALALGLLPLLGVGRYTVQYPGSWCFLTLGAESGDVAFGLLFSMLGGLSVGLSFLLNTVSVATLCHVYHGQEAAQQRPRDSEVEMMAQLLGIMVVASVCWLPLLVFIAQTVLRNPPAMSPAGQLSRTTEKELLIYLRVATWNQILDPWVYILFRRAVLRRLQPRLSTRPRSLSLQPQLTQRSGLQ

- concentration at 8 h [1]: 1600 nM
- concentration at 8 h [2]: 753 nM
- concentration at 1 h [3]: 10100 nM
- IC50 [4]: > 3160 nM
- Ki [5]: 501 nM
- concentration at 4 h [6]: 1220 nM
- IC50 [7]: > 3160 nM
- IC50 [8]: > 3160 nM
- concentration at 2 h [9]: 2480 nM
- Kp at 2 h [10]: 0.4
- concentration at 1 h [11]: 3560 nM
- CL [12]: <= 3.6 ml/min/g
- concentration at 6 h [13]: 913 nM
- Vd [14]: 2.6 L/kg
- Kp at 6 h [15]: 0.4
- concentration at 0.25 h [16]: 2600 nM
- clearance [17]: 22 mL/min/kg
- CL [18]: <= 3.6 ml/min/g
- CL [19]: <= 3.6 ml/min/g
- concentration at 2 h [20]: 5930 nM
- Kp at 4 h [22]: 0.4
- concentration at 6 h [23]: 2310 nM
- bioavailability [24]: 45%
- Kp at 1 h [26]: 0.4
- AUC/dose [27]: 18 kg·min/L
- Ki [28]: 1 nM
- IC50 [29]: 15800 nM
- Ki [29]: 7940 nM
- IC50 [30]: 5.01 nM
- Kp at 8 h [31]: 0.4
- Cmax [32]: 590 nM
- Kp at 0.25 h [33]: 0.4
- concentration at 24 h [34]: 31 nM
- concentration at 0.25 h [35]: 7360 nM
- concentration at 4 h [36]: 3560 nM
- Kp at 24 h [37]: 0.5
- Tmax [38]: 30 min
- half-life [39]: 276 min
- Ki [40]: 6310 nM
- IC50 [41]: 39.8 nM
- Ki [41]: 15.8 nM
SMILES: Cc1ccc(-n2c(C)ccc2-c2cc(Cl)ccc2OCc2ccc(F)cc2)cc1C(=O)O
- Activity [21]: 75%
- ED50 [25]: 2.5 mg/kg

- IC50 [30]: 79.4 nM
SMILES: Cc1ccc(OCc2ccc(F)cc2)c(-c2ccc(C)n2-c2cc(C(=O)O)c3ccccc3c2)c1

- IC50 [30]: 5.01 nM
SMILES: Cc1ccc(-c2cc(Br)ccc2OCc2ccccc2)n1-c1ccc(OC(F)F)c(C(=O)O)c1

- IC50 [30]: 0.631 nM
SMILES: Cc1ccc(-c2cc(Br)ccc2OCc2ccc(F)cc2F)n1-c1ccc(OC(F)F)c(C(=O)O)c1

- IC50 [30]: 0.398 nM
SMILES: CC(=O)Nc1ccc(-n2c(C)ccc2-c2cc(Br)ccc2OCc2ccc(F)cc2F)cc1C(=O)O

- IC50 [30]: 3.16 nM
SMILES: Cc1c(N)cc(-n2c(C)ccc2-c2cc(Br)ccc2OCc2ccccc2)cc1C(=O)O

- IC50 [30]: 7.94 nM
SMILES: Cc1ccc(-c2cc(C(F)(F)F)ccc2OCc2ccc(F)cc2)n1-c1ccc(F)c(C(=O)O)c1

- IC50 [30]: 15.8 nM
SMILES: Cc1ccc(OCc2ccc(F)cc2)c(-c2ccc(C)n2-c2cc(N)c(C)c(C(=O)O)c2)c1

- IC50 [30]: 12.6 nM
SMILES: Cc1ccc(-c2cc(Br)ccc2OCc2ccccc2)n1-c1cc(C(=O)O)c2ccccc2c1

- IC50 [30]: 1.26 nM
SMILES: Cc1ccc(-n2c(C)ccc2-c2cc(Br)ccc2OCc2ccc(F)cc2F)cc1C(=O)O

- IC50 [30]: 2 nM
SMILES: Cc1ccc(-c2cc(Br)ccc2OCc2ccc(F)cc2F)n1-c1ccc(O)c(C(=O)O)c1

- IC50 [30]: 25.1 nM
SMILES: Cc1ccc(-c2cc(F)ccc2OCc2ccc(F)cc2)n1-c1cc(C(=O)O)c2ccccc2c1

- IC50 [30]: 2.51 nM
SMILES: Cc1ccc(-n2c(C)ccc2-c2cc(Cl)ccc2OCc2ccc(F)cc2F)cc1C(=O)O

- IC50 [30]: 2.51 nM
SMILES: Cc1ccc(-c2cc(Br)ccc2OCc2ccc(F)cc2F)n1-c1cc(C(=O)O)c2ccccc2c1

- AUC/dose [27]: 39 kg·min/L
- IC50 [30]: 2 nM
- Cmax [32]: 2940 nM
- Tmax [38]: 30 min
SMILES: Cc1c(N)cc(-n2c(C)ccc2-c2cc(Cl)ccc2OCc2ccccc2)cc1C(=O)O
- Activity [21]: 35%
